# Assays:
# Assay in all cases: SILAC proteomics / in-gel fluorescence, competition of probe 13-t labeling by 3a
# [1] = target: proteins of HEK293T cells transiently overexpressing caspase-6 (Homo sapiens, UniProt P07814); settings: Comp; protein EPRS P07814
# [2] = target: T1, proteins of HEK293T cells transiently overexpressing caspase-6 (Homo sapiens, UniProt P12236)
# T1 sequence (P12236 1-298): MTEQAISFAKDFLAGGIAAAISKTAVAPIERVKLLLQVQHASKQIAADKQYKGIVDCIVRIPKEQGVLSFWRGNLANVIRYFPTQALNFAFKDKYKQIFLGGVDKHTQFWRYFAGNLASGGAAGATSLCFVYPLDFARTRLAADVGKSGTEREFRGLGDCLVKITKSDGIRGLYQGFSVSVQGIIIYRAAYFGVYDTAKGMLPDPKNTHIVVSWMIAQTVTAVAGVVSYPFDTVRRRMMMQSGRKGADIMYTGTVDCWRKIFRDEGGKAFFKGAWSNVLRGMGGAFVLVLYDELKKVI
# [3] = target: proteins of HEK293T cells transiently overexpressing caspase-6 (Homo sapiens, UniProt P13010); settings: Comp; protein XRCC5 P13010
# [4] = target: proteins of HEK293T cells transiently overexpressing caspase-6 (Homo sapiens, UniProt P31946); settings: Comp; protein YWHAB P31946
# [5] = target: proteins of HEK293T cells transiently overexpressing caspase-6 (Homo sapiens, UniProt P36578); settings: Comp; protein RPL4 P36578
# [6] = target: proteins of HEK293T cells transiently overexpressing caspase-6 (Homo sapiens, UniProt P38606); settings: Comp; protein ATP6V1A P38606
# [7] = target: proteins of HEK293T cells transiently overexpressing caspase-6 (Homo sapiens, UniProt P40939); settings: Comp; protein HADHA P40939
# [8] = target: proteins of HEK293T cells transiently overexpressing caspase-6 (Homo sapiens, UniProt P57088); settings: Comp; protein TMEM33 P57088
# [9] = target: proteins of HEK293T cells transiently overexpressing caspase-6 (Homo sapiens, UniProt P62753); settings: Comp; protein RPS6 P62753
# [10] = target: proteins of HEK293T cells transiently overexpressing caspase-6 (Homo sapiens, UniProt P83731); settings: Comp; protein RPL24 P83731
# [11] = target: proteins of HEK293T cells transiently overexpressing caspase-6 (Homo sapiens, UniProt Q15233); settings: Comp; protein NONO Q15233
# [12] = target: T2, proteins of HEK293T cells transiently overexpressing caspase-6 (Homo sapiens, UniProt Q8WUM4)
# T2 sequence (Q8WUM4 1-868): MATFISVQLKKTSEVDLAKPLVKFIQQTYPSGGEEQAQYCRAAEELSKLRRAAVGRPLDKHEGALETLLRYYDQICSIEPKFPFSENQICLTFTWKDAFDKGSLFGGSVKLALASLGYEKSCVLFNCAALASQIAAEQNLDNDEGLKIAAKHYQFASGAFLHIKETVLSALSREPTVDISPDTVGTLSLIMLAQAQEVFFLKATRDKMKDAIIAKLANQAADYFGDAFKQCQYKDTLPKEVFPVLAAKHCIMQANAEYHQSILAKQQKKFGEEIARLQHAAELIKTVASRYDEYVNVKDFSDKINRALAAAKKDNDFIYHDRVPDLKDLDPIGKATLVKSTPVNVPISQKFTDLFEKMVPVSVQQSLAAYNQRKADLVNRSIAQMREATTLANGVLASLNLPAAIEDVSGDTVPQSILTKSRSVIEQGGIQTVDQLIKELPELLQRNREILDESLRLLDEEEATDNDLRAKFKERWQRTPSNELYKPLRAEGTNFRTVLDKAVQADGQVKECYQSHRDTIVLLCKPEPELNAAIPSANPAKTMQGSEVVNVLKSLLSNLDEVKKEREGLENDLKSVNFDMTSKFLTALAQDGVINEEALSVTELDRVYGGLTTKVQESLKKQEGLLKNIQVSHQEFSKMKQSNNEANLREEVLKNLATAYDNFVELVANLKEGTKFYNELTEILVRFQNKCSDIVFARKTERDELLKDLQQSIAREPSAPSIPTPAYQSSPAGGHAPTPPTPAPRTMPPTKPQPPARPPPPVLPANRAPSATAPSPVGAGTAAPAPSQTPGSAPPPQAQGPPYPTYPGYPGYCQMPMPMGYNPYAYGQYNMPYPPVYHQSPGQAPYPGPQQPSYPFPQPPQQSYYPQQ
# [13] = target: proteins of HEK293T cells transiently overexpressing caspase-6 (Homo sapiens, UniProt Q9Y262)
# [14] = protein SLC25A6 (P12236), Exp Comp, analysis C6, p 0.5000, 2 peptides
# [15] = protein PDCD6IP (Q8WUM4), Exp Comp, analysis C6, p 0.5000, 2 peptides
# [16] = protein EIF3L (Q9Y262), Exp Comp, analysis C6, p 0.8438, 6 peptides
# Sequence of proteins of HEK293T cells transiently overexpressing caspase-6 (Homo sapiens, UniProt Q9Y262) (Q9Y262 whole entry): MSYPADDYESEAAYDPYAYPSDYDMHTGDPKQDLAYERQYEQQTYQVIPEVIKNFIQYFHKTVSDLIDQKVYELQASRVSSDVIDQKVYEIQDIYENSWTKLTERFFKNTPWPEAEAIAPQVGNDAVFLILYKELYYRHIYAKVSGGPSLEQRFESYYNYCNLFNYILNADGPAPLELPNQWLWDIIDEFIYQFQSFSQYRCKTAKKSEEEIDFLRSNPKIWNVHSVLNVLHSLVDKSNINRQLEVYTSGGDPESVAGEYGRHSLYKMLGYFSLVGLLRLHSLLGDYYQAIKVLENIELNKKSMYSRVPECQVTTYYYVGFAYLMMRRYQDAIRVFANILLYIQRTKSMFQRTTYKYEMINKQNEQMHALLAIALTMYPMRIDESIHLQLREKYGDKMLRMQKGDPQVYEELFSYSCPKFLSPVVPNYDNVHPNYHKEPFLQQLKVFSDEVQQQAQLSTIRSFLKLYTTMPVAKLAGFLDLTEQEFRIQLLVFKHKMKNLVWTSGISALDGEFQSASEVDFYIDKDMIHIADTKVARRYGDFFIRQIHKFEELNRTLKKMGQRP
# Sequence of proteins of HEK293T cells transiently overexpressing caspase-6 (Homo sapiens, UniProt P40939) (P40939 37-763): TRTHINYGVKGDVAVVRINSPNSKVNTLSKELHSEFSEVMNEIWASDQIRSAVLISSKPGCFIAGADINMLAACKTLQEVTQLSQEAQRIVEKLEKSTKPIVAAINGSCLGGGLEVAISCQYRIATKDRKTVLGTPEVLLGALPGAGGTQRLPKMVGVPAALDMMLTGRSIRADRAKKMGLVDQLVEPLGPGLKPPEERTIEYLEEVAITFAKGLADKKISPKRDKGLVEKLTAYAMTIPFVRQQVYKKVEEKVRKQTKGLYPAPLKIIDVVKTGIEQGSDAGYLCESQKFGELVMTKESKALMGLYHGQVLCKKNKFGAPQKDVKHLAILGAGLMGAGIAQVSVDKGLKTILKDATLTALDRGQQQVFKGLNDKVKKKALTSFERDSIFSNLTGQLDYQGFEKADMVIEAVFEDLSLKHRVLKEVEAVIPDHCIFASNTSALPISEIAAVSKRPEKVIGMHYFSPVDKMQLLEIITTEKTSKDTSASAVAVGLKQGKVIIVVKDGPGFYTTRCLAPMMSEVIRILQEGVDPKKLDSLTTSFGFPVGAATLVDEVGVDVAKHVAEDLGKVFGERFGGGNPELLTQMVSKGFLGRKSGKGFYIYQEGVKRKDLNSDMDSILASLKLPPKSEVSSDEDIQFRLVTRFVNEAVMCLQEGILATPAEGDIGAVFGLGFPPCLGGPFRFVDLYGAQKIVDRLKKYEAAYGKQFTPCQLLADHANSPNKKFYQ
# Sequence of proteins of HEK293T cells transiently overexpressing caspase-6 (Homo sapiens, UniProt P07814) (P07814 whole entry): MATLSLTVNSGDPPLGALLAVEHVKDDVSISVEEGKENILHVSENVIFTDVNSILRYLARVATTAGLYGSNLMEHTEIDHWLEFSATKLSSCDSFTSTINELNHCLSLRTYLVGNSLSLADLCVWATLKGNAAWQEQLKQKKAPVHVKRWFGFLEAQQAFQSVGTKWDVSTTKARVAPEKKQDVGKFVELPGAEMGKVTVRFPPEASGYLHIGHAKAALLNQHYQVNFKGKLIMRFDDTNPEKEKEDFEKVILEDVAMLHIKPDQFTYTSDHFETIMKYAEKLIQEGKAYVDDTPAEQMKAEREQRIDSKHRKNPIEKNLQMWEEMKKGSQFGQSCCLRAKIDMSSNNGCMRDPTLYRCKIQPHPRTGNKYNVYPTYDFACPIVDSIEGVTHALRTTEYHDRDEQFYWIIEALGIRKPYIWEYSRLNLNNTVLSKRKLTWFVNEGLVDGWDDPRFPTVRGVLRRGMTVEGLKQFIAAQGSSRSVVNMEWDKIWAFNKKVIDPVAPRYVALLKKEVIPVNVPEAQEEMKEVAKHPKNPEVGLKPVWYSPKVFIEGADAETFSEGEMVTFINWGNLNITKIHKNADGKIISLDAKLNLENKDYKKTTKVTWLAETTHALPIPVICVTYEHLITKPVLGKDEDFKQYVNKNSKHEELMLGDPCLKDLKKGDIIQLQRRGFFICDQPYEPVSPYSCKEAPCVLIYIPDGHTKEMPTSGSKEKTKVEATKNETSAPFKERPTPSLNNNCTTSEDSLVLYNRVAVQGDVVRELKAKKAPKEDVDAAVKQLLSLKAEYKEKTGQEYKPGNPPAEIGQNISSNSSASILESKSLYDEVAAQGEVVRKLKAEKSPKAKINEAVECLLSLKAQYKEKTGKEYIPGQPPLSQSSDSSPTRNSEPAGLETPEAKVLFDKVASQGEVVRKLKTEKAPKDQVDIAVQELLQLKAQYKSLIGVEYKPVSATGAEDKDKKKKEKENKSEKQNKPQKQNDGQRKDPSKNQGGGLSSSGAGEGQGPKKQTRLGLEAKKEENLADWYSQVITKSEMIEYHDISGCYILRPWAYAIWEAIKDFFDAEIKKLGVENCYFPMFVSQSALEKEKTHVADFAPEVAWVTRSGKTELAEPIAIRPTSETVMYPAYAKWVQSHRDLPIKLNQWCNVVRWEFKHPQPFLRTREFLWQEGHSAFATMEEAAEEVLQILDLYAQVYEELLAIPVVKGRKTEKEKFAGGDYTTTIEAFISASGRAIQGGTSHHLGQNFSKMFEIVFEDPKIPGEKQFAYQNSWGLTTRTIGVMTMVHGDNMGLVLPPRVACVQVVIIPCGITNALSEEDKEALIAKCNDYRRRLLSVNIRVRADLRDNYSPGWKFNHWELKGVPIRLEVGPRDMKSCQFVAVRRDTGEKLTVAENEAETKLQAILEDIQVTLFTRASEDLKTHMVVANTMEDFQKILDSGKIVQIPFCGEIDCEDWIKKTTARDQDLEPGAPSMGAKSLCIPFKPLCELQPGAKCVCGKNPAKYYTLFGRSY
# Sequence of proteins of HEK293T cells transiently overexpressing caspase-6 (Homo sapiens, UniProt P38606) (P38606 whole entry): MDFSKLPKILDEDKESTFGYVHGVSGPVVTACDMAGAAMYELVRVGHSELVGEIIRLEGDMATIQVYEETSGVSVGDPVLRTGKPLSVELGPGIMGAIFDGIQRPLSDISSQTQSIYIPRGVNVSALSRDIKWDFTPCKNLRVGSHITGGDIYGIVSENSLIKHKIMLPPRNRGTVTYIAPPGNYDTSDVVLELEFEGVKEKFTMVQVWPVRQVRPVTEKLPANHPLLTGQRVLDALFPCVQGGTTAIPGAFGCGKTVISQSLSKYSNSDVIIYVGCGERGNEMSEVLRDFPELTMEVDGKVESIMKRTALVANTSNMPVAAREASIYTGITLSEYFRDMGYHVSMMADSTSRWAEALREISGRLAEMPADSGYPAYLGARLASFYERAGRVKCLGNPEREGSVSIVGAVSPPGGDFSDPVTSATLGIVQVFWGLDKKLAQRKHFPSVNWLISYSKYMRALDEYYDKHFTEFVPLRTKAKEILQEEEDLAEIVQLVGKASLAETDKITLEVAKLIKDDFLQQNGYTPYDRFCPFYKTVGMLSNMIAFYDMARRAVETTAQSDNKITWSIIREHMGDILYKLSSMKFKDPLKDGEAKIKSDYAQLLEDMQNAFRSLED
# Sequence of proteins of HEK293T cells transiently overexpressing caspase-6 (Homo sapiens, UniProt Q15233) (Q15233 whole entry): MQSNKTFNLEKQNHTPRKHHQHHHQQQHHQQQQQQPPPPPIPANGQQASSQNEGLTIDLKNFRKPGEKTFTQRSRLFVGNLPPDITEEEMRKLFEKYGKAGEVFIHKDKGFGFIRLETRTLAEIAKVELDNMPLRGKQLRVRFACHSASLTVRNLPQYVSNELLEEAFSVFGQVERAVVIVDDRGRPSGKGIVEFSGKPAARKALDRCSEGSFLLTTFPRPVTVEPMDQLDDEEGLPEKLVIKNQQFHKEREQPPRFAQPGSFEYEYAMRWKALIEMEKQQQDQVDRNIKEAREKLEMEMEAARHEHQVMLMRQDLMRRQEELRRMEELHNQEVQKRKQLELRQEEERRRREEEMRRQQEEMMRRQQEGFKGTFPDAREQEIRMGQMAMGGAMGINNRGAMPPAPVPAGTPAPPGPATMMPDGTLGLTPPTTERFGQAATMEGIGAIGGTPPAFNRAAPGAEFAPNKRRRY
# Sequence of proteins of HEK293T cells transiently overexpressing caspase-6 (Homo sapiens, UniProt P57088) (P57088 whole entry): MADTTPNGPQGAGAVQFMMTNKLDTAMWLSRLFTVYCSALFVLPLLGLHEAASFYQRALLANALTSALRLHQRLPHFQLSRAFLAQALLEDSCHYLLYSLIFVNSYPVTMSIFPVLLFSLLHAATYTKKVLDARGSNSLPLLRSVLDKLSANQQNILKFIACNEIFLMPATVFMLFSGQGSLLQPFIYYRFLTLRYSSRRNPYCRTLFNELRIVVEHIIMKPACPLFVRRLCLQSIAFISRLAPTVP
# Sequence of proteins of HEK293T cells transiently overexpressing caspase-6 (Homo sapiens, UniProt P31946) (P31946 whole entry): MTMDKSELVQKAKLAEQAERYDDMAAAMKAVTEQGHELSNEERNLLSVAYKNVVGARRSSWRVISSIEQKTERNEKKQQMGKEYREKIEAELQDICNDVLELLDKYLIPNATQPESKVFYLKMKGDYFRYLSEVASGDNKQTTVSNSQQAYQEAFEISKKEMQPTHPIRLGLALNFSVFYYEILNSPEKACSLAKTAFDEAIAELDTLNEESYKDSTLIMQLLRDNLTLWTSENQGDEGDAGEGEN
smiles,measurement,setting,value
C=CS(=O)(=O)N1C[C@H](C(=O)Nc2ccc(OC(F)(F)F)cc2)C[C@@H](c2ccccc2)C1 [3a],enrich.exp.med,[1],0.7098
same,enrich.exp.med,"[2]; Comp, protein SLC25A6 P12236",3.139
same,enrich.exp.med.lin,[2]; [14],8.81
same,enrich.exp.med.log2,[2]; [14],3.139
same,enrich.exp.med,[3],0.6006
same,enrich.exp.med,[4],0.6188
same,enrich.exp.med,[5],0.5872
same,enrich.exp.med,[6],0.8033
same,enrich.exp.med,[7],0.6753
same,enrich.exp.med,[8],0.7492
same,enrich.exp.med,[9],0.7055
same,enrich.exp.med,[10],0.668
same,enrich.exp.med,[11],0.6126
same,enrich.exp.med,"[12]; Comp, protein PDCD6IP Q8WUM4",1
same,enrich.exp.med.lin,[12]; [15],2
same,enrich.exp.med.log2,[12]; [15],1
same,enrich.exp.med,"[13]; Comp, protein EIF3L Q9Y262",1.059
same,enrich.exp.med.lin,[13]; [16],2.083
same,enrich.exp.med.log2,[13]; [16],1.059

# Source: PMC10176470, “Engaging a Non-catalytic Cysteine Residue Drives Potent and Selective Inhibition of Caspase-6” (Journal of the American Chemical Society, 2023)
